Source: patent US11465995B2, “Crystal and salt forms of tricyclic compound and preparation process thereof” (SHIJIAZHUANG SAGACITY NEW DRUG DEVELOPMENT COMPANY, LTD., priority 2018, dated 2022)
Values joined by “and” are separate entries in the source; they are usually repeats but may differ in a detail not shown here. Equal entries are not always repeated.

Key:
[1] = Pharmacokinetic evaluation in SD rats; format: in vivo; settings: Sprague Dawley, rat, plasma, 3 mg/kg, male, intravenous injection and oral administration, Ozanimod at 3 mpk; for bioavailability: read-out: Bioavailability F (%); for AUC: read-out: Concentration Integration AUC; for half-life: read-out: Half-life T1/2 (converted)
Experimental: This Example is provided to test pharmacokinetics of compounds in SD rats.
Materials: Sprague Dawley rats (male, 200-300 g, 7-9 weeks, Shanghai SLAC)
Procedures: The rodent pharmacokinetic characteristics of the compound after intravenous injection and oral administration were tested according to standard protocol. In the test, the candidate compound was formulated as a clear solution, and the rats were given a single intravenous injection and oral administration. The intravenous and oral vehicles were a hydroxypropyl β cyclodextrin aqueous solution in a certain proportion or normal saline solution. The whole blood sample within 24 h was collected, centrifuged at 3000 g for 15 min, and the supernatant was separated to give the plasma sample. 4 volumes of acetonitrile solution containing internal standard was added to precipitate protein and after centrifugation the supernatant was collected and added with equal volume of water. After further centrifugation, the supernatant was used for injection. Quantitative analysis of blood drug concentration was done by LC-MS/MS analysis method and pharmacokinetic parameters were calculated, such as Cmax, Tmax, clearance, half-life, area under the curve of drug concentration-time, bioavailability, etc.

blood lymphocytes = test: Effects of single oral administration on blood lymphocytes in rats; format: in vivo, SD rats; settings: for Percentage of lymphocytes in white blood cells in a unit volume of blood (%) / Rate of change of lymphocytes in blood after administration (%): mean ± SEM
Experimental: Normal SPF grade male SD rats were administered by single oral gavage. The experiment contained five groups: the vehicle control group, the reference compound Ozanimod group, Compound 1-0.3 mg/kg dose group, Compound 1-1.0 mg/kg dose group, Compound 1-3 mg/kg dose group. Blood was collected 0.5 h before administration and 4, 8, 24 h after administration, and anticoagulated with 10% K2-EDTA. The anticoagulated blood sample was placed in 4° C. environment, diluted 1:4 with normal saline, and quickly tested with a hematology analyzer to calculate the number of lymphocytes per liter of blood and the percentage in the total white blood cells. Graphpad prism 6.0 software was used to calculate the mean±standard error, and the two-way ANOVA test was used to test the significance of the difference. When p<0.05, there was a significant difference between two groups.

[2] = test system: TNBS-induced acute infectious bowel disease (IBD) model; test: Pharmacodynamic test on TNBS-induced acute infectious bowel disease (IBD) model in female SD rats; format: in vivo; parameters: Ulcer score / Inflammation score / Total injury score: scale not given here; settings: for Injury area (cm^2) / Ulcer area (cm^2) / Inflammation score / Total injury score / Ulcer score: mean ± sem; for Inflammation score / Total injury score / Ulcer score: colon pathological test
Experimental: Female SD rats were divided into 7 groups, that is, model group, prednisolone-10 mg/kg group, Ozanimod-0.3 mg/kg group, Ozanimod-1.0 mg/kg group, Compound 1-0.1 mg/kg group, Compound 1-0.3 mg/kg group, Compound 1-0.6 mg/kg group. All animals were deeply anesthetized with pentobarbital sodium, and TNBS-50% alcohol solution was inserted into the intestinal cavity from the anus for modeling. The animal's anus was squeezed, and the animal was allowed to stand upside down for 5 min. The animals were returned to the cage after assured to be leak free.
The test compounds were administered orally 1 h after modeling, once a day for 7 days. The model group was given an equal volume of drug vehicle. The animals were weighed daily before administration of the test compound and were monitored for daily fecal traits and given clinical observation scores. The day after the last administration, all animals were euthanized. The colons were collected (anal to nodular part), the length and weight of the colons were measured, and the gross anatomical scores of the lesion sizes was taken. The gross anatomical images of the colon lesions were recorded, and the tissues were fixed in 10% neutral formalin solution and were subjected to histopathological analysis.

S1P1 receptor = target: T1, S1P1 receptor (Homo sapiens, UniProt P21453); test: S1P1 receptor agonistic activity test (PathHunter cell line); format: cell-based; settings: agonist mode
T1 construct: expressed in transfected cells
T1 sequence (P21453 whole entry): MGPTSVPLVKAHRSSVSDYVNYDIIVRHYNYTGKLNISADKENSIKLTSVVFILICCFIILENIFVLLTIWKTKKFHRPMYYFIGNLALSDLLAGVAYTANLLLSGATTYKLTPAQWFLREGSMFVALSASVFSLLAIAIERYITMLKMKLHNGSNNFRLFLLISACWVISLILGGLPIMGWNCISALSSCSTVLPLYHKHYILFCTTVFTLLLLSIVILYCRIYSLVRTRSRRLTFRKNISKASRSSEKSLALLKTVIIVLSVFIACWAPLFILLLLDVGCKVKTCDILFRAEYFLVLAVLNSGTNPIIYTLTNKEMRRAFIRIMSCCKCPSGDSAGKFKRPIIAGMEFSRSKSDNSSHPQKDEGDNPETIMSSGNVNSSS
Experimental: I. Cells Treatment • 1. PathHunter cell line was thawed according to standard procedures. • 2. The cells were inoculated in 20 μl 384-well microplates and incubated at 37° C. for appropriate time.
II. Agonist • 1. For the agonist assay, the cells were incubated with the testing sample to induce the reaction. • 2. The stock solution had been diluted 5 times with the buffer. • 3. 5 μl of 5-fold dilution was added into the cells, which were incubated at 37° C. for 90-180 min with the vehicle concentration of 1%.
III. Signal Detection • 1. 12.5 μl or 15 μl of PathHunter detection reagent at a volume ratio of 50% was added in one portion, then incubation at room temperature was performed for 1 h to generate detection signal. • 2. The PerkinElmer Envision™ instrument was used to read the microplate for chemiluminescence signal detection.
IV. Data Analysis • 1. CBIS data analysis kit was used to analyze the activity of the compound. • 2. Calculation formula: % Activity=100%×(average RLU of testing sample−average RLU of vehicle)/(average RLU of maximum control ligand−average RLU of vehicle) The results were shown in Table 3.

[3] = 1.0 mg/kg single oral, −0.5 h (before administration)
[4] = 0.3 mg/kg oral once a day for 7 days
[5] = 1.0 mg/kg oral once a day for 7 days
[6] = 0.1 mg/kg oral once a day for 7 days
[7] = 0.6 mg/kg oral once a day for 7 days

In the case of CC(C)Oc1ccc(-c2nc(-c3cccc4c3CC[C@@H]4NCCO)no2)cc1C#N [Ozanimod, reference compound], the clearance [1] is reported as 46.3 mL/min/kg, the bioavailability [1] is reported as 41.6% and the AUC [1] is reported as 1.12 µM·h. For the same compound, the half-life [1] was 5.24 h, the “Percentage of lymphocytes in white blood cells in a unit volume of blood (%)” value (“Percentage of lymphocytes … (%)” below) (blood lymphocytes; 1.0 mg/kg single oral, 4 h) was 44.53 ± 3.75 % and the “Rate of change of lymphocytes in blood after administration (%)” value (shortened to “Rate of change of lymphocytes in blood … (%)”) (blood lymphocytes; 1.0 mg/kg single oral, 4 h) was −71.79 ± 2.51 %. The “maximum decreasing rate of the number of blood lymphocytes” value (“maximum decreasing rate” below) (blood lymphocytes; 1.0 mg/kg single oral, 8 h) was 84.39%, the “Percentage of lymphocytes … (%)” value (blood lymphocytes; 1.0 mg/kg single oral, 8 h) was 35.69 ± 2.47^****$ % and the “Rate of change of lymphocytes in blood … (%)” value (blood lymphocytes; 1.0 mg/kg single oral, 8 h) was −84.39 ± 1.16 %. The “blood lymphocyte decreasing rate” value (blood lymphocytes; 1.0 mg/kg single oral, 24 h) was 47.26%, the “Percentage of lymphocytes … (%)” value (blood lymphocytes; 1.0 mg/kg single oral, 24 h) was 58.63 ± 2.17% and the “Rate of change of lymphocytes in blood … (%)” value (blood lymphocytes; 1.0 mg/kg single oral, 24 h) was −47.26 ± 4.34 %. For the same compound, the “Percentage of lymphocytes … (%)” value (blood lymphocytes; [3]) was 58.67 ± 1.61%, the “Injury area (cm^2)” value [2, 4] was 4.76 ± 0.33 cm^2 and the “Ulcer area (cm^2)” value [2, 4] was 1.12 ± 0.31 cm^2. For the same compound, the “Injury area (cm^2)” value [2, 5] was 4.60 ± 0.71 cm^2, the “Ulcer area (cm^2)” value [2, 5] was 1.36 ± 0.48 cm^2 and the Inflammation score ([2]; 0.3 mg/kg) was 3.71 ± 0.42. It also gave a Total injury score ([2]; 0.3 mg/kg) of 6.29 ± 0.75, a Ulcer score ([2]; 0.3 mg/kg) of 2.57 ± 0.37 and an Inflammation score ([2]; 1.0 mg/kg) of 3.43 ± 0.30. The Total injury score ([2]; 1.0 mg/kg) was 6.00 ± 0.58 and the Ulcer score ([2]; 1.0 mg/kg) was 2.57 ± 0.30.

With CC(C)Oc1ccc(-c2nc(-c3cccc4c3C[C@@H]3CC(=O)N(CCO)[C@H]43)no2)cc1C#N (single isomer, unassigned) [Compound 1] the EC50 (S1P1 receptor) was < 0.01 µM, the clearance [1] was 11.5 mL/min/kg and the bioavailability [1] was 85.8%. The AUC [1] was 6.83 µM·h, the half-life [1] was 3.46 h and the “Percentage of lymphocytes … (%)” value (blood lymphocytes; 0.3 mg/kg single oral, 4 h) was 52.08 ± 3.35^&&& %. For the same compound, the “Rate of change of lymphocytes in blood … (%)” value (blood lymphocytes; 0.3 mg/kg single oral, 4 h, vs same group before administration) was −59.57 ± 2.01 %, the “maximum decreasing rate” value (blood lymphocytes; 0.3 mg/kg single oral, 8 h) was 66.87% and the “Percentage of lymphocytes … (%)” value (blood lymphocytes; 0.3 mg/kg single oral, 8 h) was 46.71 ± 3.72^*#&&&& %. The “Rate of change of lymphocytes in blood … (%)” value (blood lymphocytes; 0.3 mg/kg single oral, 8 h) was −66.87 ± 1.97 %, the “blood lymphocyte decreasing rate” value (blood lymphocytes; 0.3 mg/kg single oral, 24 h) was −44.98% and the “Percentage of lymphocytes … (%)” value (blood lymphocytes; 0.3 mg/kg single oral, 24 h) was 63.86 ± 1.70%. The “Rate of change of lymphocytes in blood … (%)” value (blood lymphocytes; 0.3 mg/kg single oral, 24 h) was 44.98 ± 16.62 %, the “Percentage of lymphocytes … (%)” value (blood lymphocytes; 0.3 mg/kg single oral, −0.5 h (before administration)) was 59.12 ± 2.19% and the “Percentage of lymphocytes … (%)” value (blood lymphocytes; 1.0 mg/kg single oral, 4 h) was 36.82 ± 2.33^****$$$ %. For the same compound, the “Rate of change of lymphocytes in blood … (%)” value (blood lymphocytes; 1.0 mg/kg single oral, 4 h) was −71.25 ± 1.93 %, the “maximum decreasing rate” value (blood lymphocytes; 1.0 mg/kg single oral, 8 h) was 83.09% and the “Percentage of lymphocytes … (%)” value (blood lymphocytes; 1.0 mg/kg single oral, 8 h) was 29.89 ± 2.56^****$$$$ %. For the same compound, the “Rate of change of lymphocytes in blood … (%)” value (blood lymphocytes; 1.0 mg/kg single oral, 8 h) was −83.09 ± 1.25 %, the “blood lymphocyte decreasing rate” value (blood lymphocytes; 1.0 mg/kg single oral, 24 h) was 0.22% and the “Percentage of lymphocytes … (%)” value (blood lymphocytes; 1.0 mg/kg single oral, 24 h) was 61.62 ± 1.61%. For the same compound, the “Rate of change of lymphocytes in blood … (%)” value (blood lymphocytes; 1.0 mg/kg single oral, 24 h) was −0.22 ± 6.87^**#$$ %, the “Percentage of lymphocytes … (%)” value (blood lymphocytes; [3]) was 59.49 ± 1.01% and the “Percentage of lymphocytes … (%)” value (blood lymphocytes; 3.0 mg/kg single oral, 4 h) was 34.03 ± 3.81^****#$$$$ %. The “Rate of change of lymphocytes in blood … (%)” value (blood lymphocytes; 3.0 mg/kg single oral, 4 h) was −78.97 ± 0.91 %, the “maximum decreasing rate” value (blood lymphocytes; 3.0 mg/kg single oral, 8 h) was 85.92% and the “Percentage of lymphocytes … (%)” value (blood lymphocytes; 3.0 mg/kg single oral, 8 h) was 26.19 ± 2.81^****$$$$ %. The “Rate of change of lymphocytes in blood … (%)” value (blood lymphocytes; 3.0 mg/kg single oral, 8 h) was −85.92 ± 1.26 %, the “blood lymphocyte decreasing rate” value (blood lymphocytes; 3.0 mg/kg single oral, 24 h) was 55.15% and the “Percentage of lymphocytes … (%)” value (blood lymphocytes; 3.0 mg/kg single oral, 24 h) was 57.05 ± 2.49%. For the same compound, the “Rate of change of lymphocytes in blood … (%)” value (blood lymphocytes; 3.0 mg/kg single oral, 24 h) was −55.15 ± 3.32^****$$$$& %, the “Percentage of lymphocytes … (%)” value (blood lymphocytes; 3.0 mg/kg single oral, −0.5 h (before administration)) was 62.35 ± 2.26% and the “Injury area (cm^2)” value [2, 6] was 6.09 ± 0.94 cm^2. For the same compound, the “Ulcer area (cm^2)” value [2, 6] was 2.42 ± 0.66 cm^2, the “Injury area (cm^2)” value [2, 4] was 5.34 ± 0.90 cm^2 and the “Ulcer area (cm^2)” value [2, 4] was 2.18 ± 0.84 cm^2. For the same compound, the “Injury area (cm^2)” value [2, 7] was 3.42 cm^2 and 3.42 ± 0.73* cm^2, the “Ulcer area (cm^2)” value [2, 7] was 0.94 ± 0.55 cm^2 and the “symptoms of colon ulcers and edema (dissection at the end of the experiment)” value ([2]; 0.6 mg/kg, compared to the model group) was “reduced compared to the model group”. For the same compound, the Inflammation score ([2]; 0.1 mg/kg) was 3.57 ± 0.20, the Total injury score ([2]; 0.1 mg/kg) was 6.14 ± 0.40 and the Ulcer score ([2]; 0.1 mg/kg) was 2.57 ± 0.20. For the same compound, the Inflammation score ([2]; 0.3 mg/kg) was 3.57 ± 0.37, the Total injury score ([2]; 0.3 mg/kg) was 6.14 ± 0.63 and the Ulcer score ([2]; 0.3 mg/kg) was 2.57 ± 0.30.
